Test results as given in patent US10117430B2, “Malononitrile compounds for controlling animal pests” (BASF SE, priority 2012, dated 2018).

Experiments:
Assay type in all cases: in vivo
[1] = test system: Vetch Aphid (Megoura viciae); test: B.7 Vetch aphid test on broad bean leaf disks; conditions: foliar, 120 h, in comparison with untreated controls, 5 days
Method in brief: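 Broad bean leaf disks sprayed with compounds in 25% DMSO/75% water at several concentrations, two replicates, then air-dried. Infested with 5-8 adult Megoura viciae and held 5 days at about 23±1 °C and 50±5% RH. Mortality and fecundity scored visually.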

[2] = test system: Green Peach Aphid (Myzus persicae); test: B.3 Green peach aphid systemic test, artificial diet under membrane; conditions: 72 h, concentration of the test solution 2500 mg/L, 3 days
Method in brief: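 Systemic uptake from artificial liquid diet beneath a membrane, compound formulated in 75% water/25% DMSO and added to diet at several concentrations, two replicates. 5-8 adult aphids fed on treated diet for 3 days at about 23±1° C. and 50±5% RH. Mortality and fecundity scored visually.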

[3] = test system: Yellow Fever Mosquito (Aedes aegypti); test: whole plant or invertebrate; conditions: 48 h, in comparison with untreated controls, larval mortality after 2 days
Method in brief: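 Freshly hatched larvae (5-15 per well) in 200 μl tap water; compounds formulated in 75% water/25% DMSO and sprayed at 2.5 μl per well at several concentrations, two replicates. Incubated 2 days at 28±1° C., 80±5% RH; larval mortality scored visually.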

N#CC(C#N)(Cc1ccc(C(F)(F)F)nc1)c1cc(F)cc(F)c1 [II-34]
≥ 75%: mortality at 2500 ppm [1] | mortality at 2500 µg/mL [2] | mortality at 2500 ppm [3]
